Results: paper PMC6834145, “Identification of a Novel Oligosaccharide in Maple Syrup as a Potential Alternative Saccharide for Diabetes Mellitus Patients” (International Journal of Molecular Sciences, 2019)

Legend:
[1] = molecular target: T1, Invertase from Candida utilis (Williopsis jadinii, UniProt O94224); test: glucose release from sucrose, capillary electrophoresis of PMP derivatives; type: biochemical; conditions: substrate sucrose (100 µg), acetate buffer pH 4.5, 15 min
T1 construct: gene INV1; commercial native enzyme, Seikagaku Biobusiness Corporation
T1 sequence (O94224 1-533): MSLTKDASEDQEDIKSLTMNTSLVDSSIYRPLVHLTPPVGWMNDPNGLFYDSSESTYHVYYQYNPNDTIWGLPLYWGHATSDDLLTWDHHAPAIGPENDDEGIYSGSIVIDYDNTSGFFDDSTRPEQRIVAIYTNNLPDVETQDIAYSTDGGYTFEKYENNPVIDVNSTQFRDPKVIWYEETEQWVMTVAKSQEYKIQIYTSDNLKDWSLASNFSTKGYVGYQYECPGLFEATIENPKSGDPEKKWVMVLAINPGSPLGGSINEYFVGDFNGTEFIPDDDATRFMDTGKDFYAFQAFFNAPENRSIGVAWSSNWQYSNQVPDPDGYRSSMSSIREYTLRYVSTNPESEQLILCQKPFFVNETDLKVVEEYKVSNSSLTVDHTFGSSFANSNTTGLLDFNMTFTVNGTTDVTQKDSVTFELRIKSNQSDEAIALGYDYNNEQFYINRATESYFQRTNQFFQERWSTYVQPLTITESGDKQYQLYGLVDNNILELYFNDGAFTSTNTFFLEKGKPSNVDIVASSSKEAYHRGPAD
From the text: glucose release from sucrose, capillary electrophoresis of PMP derivatives on Invertase from Candida utilis

[2] = molecular target: T2, maltase (α-(1-4) glucosidase) from Saccharomyces; test: glucose release from maltose, capillary electrophoresis of PMP derivatives; type: biochemical; conditions: substrate maltose; citric buffer pH 6.8 or acetate buffer pH 4.5 (text does not assign clearly), 15 min
T2 construct: gene MAL12; commercial enzyme, Sigma-Aldrich Japan
From the text: glucose release from maltose, capillary electrophoresis of PMP derivatives on maltase (α-(1-4) glucosidase) from Saccharomyces

OC[C@H]1OC(O)[C@H](O)[C@@H](O)[C@@H]1OC[C@H]1OC(O)(CO)[C@@H](O)[C@@H]1O (some centres unmarked) [maplebiose1]
IC50 [1]: 1170 µM | IC50 [2]: 1720 µM
